Assay results as given in patent US20040115706A1, “High-throughput methods for identifying quadruplex forming nucleic acids and modulators thereof” (priority 2002, published 2004).

Legend:
Assay type in all cases: binding
[1] = system: non-quadruplex nucleic acid QB-2; experiment: Signal molecule fluorescence assay with nucleic acid not capable of forming a quadruplex; details: 3 μM signal molecule; excitation 420 nm, emission 660 nm; FIG. 2A/2B
Protocol: (§1) A typical assay was carried out in 100 μl of 20 mM HEPES buffer, pH 7.0, 140 mM NaCl, and 100 mM KCl. Fifty μl of quadruplex nucleic acid or a nucleic acid not capable of forming a quadruplex were added in 96-well plate. 50 μl of signal molecule was then added for a final concentration of 3 μM. N-methylmesoporphyrin IX (NMM) and meso-tetrakis(N-methyl-4-pyridyl)porphine (TMPyP4) were tested as signal molecules. Fluorescence was measured at an excitation wavelength of 420 nm and an emission wavelength of 660 nm for each of these signal molecules using a FluoStar 2000 fluorometer (BMG Labtechnologies, Durham, N.C.). NMM and TMPyP4 were obtained from Frontier Scientific Inc, Logan, Utah. Fluorescence was plotted as a function of concentration of nucleic acid added to the system at a constant 3 μM concentration of NMM (FIG. 2A) or TMPyP4 (FIG. 2B).

[2] = system: quadruplex nucleic acid QB-1; experiment: Signal molecule fluorescence assay with quadruplex nucleic acid; details: for fluorescent signal / interaction with quadruplex nucleic acid QB-1: 3 μM signal molecule, excitation 420 nm, emission 660 nm, FIG. 2A/2B
Protocol: as §1, with “Fifty” for “A typical assay was carried out in 100 μl of 20 mM HEPES buffer, pH 7.0, 140 mM NaCl, and 100 mM KCl. Fifty”

ds DNA pGL3 = experiment: EB competition with NMM or TMPyP4 for ds DNA; details: 6.5 μg/μl pGL3; presence or absence of EB; FIG. 4C
Protocol: Next, the effect of EB competition with NMM or TMPyP4 for ds DNA was assessed. The assay was carried out as described in the previous paragraph, with 6.5 μg/μl pGL3, and the results were graphically compiled in FIG. 4C.
pGL3 was purchased from Promega, Madison, Wis. pGL3/myc included the nuclease hypersensitive element (NHE) MYC8 fragment from the proximal region of human c-MYC. pGL3/myc was constructed by cloning the MYC8 fragment from human genomic DNA (Promega, Madison, Wis.) and inserting that fragment into the multiple cloning site of the pGL3 vector via Nhe I and Bgl II digestion and ligation. The MYC8 fragment (840 bp) was cloned from human genomic DNA using two primer oligonucleotides. The sense strand primer oligonucleotide for the c-MYC regulatory region had the nucleotide sequence 5′-[…]-3′ (SEQ ID NO: 36; Nhe I site is underlined), which corresponded to site 1993 in the sense strand GenBank sequence. The antisense primer had the nucleotide sequence 5′-[…]-3′ (SEQ ID NO: 37; Bgl II site is underlined), which corresponded to site 2833 in the sense strand GenBank sequence. The Genbank sequence was the Homo sapiens MYC gene, c-myc proto-oncogene and ORF1, Length=10996 (http address: www.ncbi.nlm.nih.gov/entrez/query.fcgi?cmd=Retrieve&db=nucleotide&list_uids=188965&dopt=GenBank). The construct was confirmed by sequencing.

[3] = Identification of quadruplex forming nucleic acids by probing with NMM; details: for capability of forming a quadruplex structure: 0.1 to 10 μM test nucleic acid probed with 3 μM NMM, FIG. 2C; for interaction with NMM (quadruplex forming profile): 3 μM NMM, FIG. 2E
Protocol: as §1
In this study, several oligonucleotides were analyzed to determine which of them were capable of forming quadruplex structures. The oligonucleotides in Table 2 were synthesized by Applied Biosystems (Foster City, Calif.).
FIG. 2E depicts quadruplex forming profiles for oligonucleotides QB-1 and QB-11 to QB-25.

[4] = system: quadruplex nucleic acid QB-1; experiment: Competition of test molecules with NMM for quadruplex nucleic acid QB-1; details: QB-1 5 μM, NMM 3 μM; FIG. 3
Protocol: Test molecules were mixed with the quadruplex nucleic acid QB-1 in a 96-well plate and fluorescence backgrounds were monitored under the conditions specified in Example 1. NMM was then added to wells in the 96-well plate to a final concentration of 3 μM. Fluorescence of NMM was measured at an excitation wavelength of 420 nm and an emission wavelength of 660 nm using a FluoStar 2000 fluorometer (BMG Labtechnologies, Durham, N.C.). Maximum fluorescent signals for NMM were assessed in the absence of the test molecules. Fluorescence was plotted as a function of the concentration of three test molecules with constant concentrations of QB-1 (5 μM) and NMM (3 μM)(FIG. 3). The test compounds were telomestatin, QQ28, and serinodisaphyrin (see, e.g., Shin-ya et al., J. Am. Chem. Soc. 123:1262 (2001); Duan et al., Mol. Cancer Therapeutics 1:103 (2001)).

ss DNA QB-1 = experiment: Specificity of signal molecules for single-stranded DNA; details: 3 μM NMM (FIG. 4A) or 3 μM EB (FIG. 4B)
Protocol: (§2) The specificity of signal molecules NMM and ethidium bromide was assessed with respect to single-stranded (ss) DNA and double-stranded (ds) DNA. Fluorescence was plotted as a function of the concentration of ss DNA QB-1 or ds DNAs pGL3E or pGL3E/myc, under conditions of 3 μM NMM (FIG. 4A) or 3 μM EB (FIG. 4B). Fluorescence of NMM was measured as described in Example 1. Fluorescence of EB was measured at an excitation wavelength of 485 nm and an emission wavelength 590 nm using a FluoStar 2000 fluorometer (BMG Labtechnologies, Durham, N.C.). Ethidium bromide (EB) was obtained from Calbiochem, San Diego, Calif.

[5] = system: ds DNAs pGL3E or pGL3E/myc; experiment: Specificity of signal molecules for double-stranded DNA; details: 3 μM NMM (FIG. 4A) or 3 μM EB (FIG. 4B)
Protocol: as §2
pGL3 was purchased from Promega, Madison, Wis. pGL3/myc included the nuclease hypersensitive element (NHE) MYC8 fragment from the proximal region of human c-MYC. pGL3/myc was constructed by cloning the MYC8 fragment from human genomic DNA (Promega, Madison, Wis.) and inserting that fragment into the multiple cloning site of the pGL3 vector via Nhe I and Bgl II digestion and ligation. The MYC8 fragment (840 bp) was cloned from human genomic DNA using two primer oligonucleotides. The sense strand primer oligonucleotide for the c-MYC regulatory region had the nucleotide sequence 5′-[…]-3′ (SEQ ID NO: 36; Nhe I site is underlined), which corresponded to site 1993 in the sense strand GenBank sequence. […]

C[n+]1ccc(-c2c3nc(c(-c4cc[n+](C)cc4)c4ccc([nH]4)c(-c4cc[n+](C)cc4)c4nc(c(-c5cc[n+](C)cc5)c5ccc2[nH]5)C=C4)C=C3)cc1 [TMPyP4, meso-tetrakis(N-methyl-4-pyridyl)porphine]
fluorescent signal / interaction with non-quadruplex nucleic acid QB-2 [1]: varied significantly
change of emitted signal with increasing quadruplex nucleic acid concentrations ([2]; 3 μM TMPyP4, FIG. 2B, likely due to quenching): decreased with increasing quadruplex nucleic acid concentrations
fluorescent signal / interaction with quadruplex nucleic acid QB-1 [2]: varied significantly
interaction with ds DNA (ds DNA pGL3): did interact with ds DNA

QB-10: 5′-GGTTGGTGTGGTTGG-3′, SEQ ID NO 20, intramolecular edge, or chair structure (DNA, backbone not given here)
capability of forming a quadruplex structure [3]: capable of forming a quadruplex structure

QB-23: 5′-CGCTTGATGAGTCAGCCGGAA-3′, SEQ ID NO 33, AP-1 (DNA, backbone and methylation of C not given here)
interaction with NMM (quadruplex forming profile) [3]: did not appreciably interact with NMM

QB-20: 5′-GTGGTGGGTGGGTGGGT-3′, SEQ ID NO 30, T30177 (DNA, backbone not given here)
interaction with NMM (quadruplex forming profile) [3]: interacted most significantly

serinodisaphyrin
affinity of interaction with the quadruplex DNA (competition with NMM) [4]: intermediate affinity
identification as quadruplex interacting molecule [4]: identified as quadruplex interacting molecules

CCC1=C(C)c2cc3[nH]c(cc4nc(cc5c(CCC(=O)O)c(C)c(cc1n2)n5C)C(CCC(=O)O)=C4C)c(C)c3CC [NMM, N-methylmesoporphyrin IX]
fluorescent signal / interaction with non-quadruplex nucleic acid QB-2 [1]: did not interact appreciably
fluorescent signal / interaction with quadruplex nucleic acid QB-1 [2]: interacted with quadruplex nucleic acid QB-1
stabilization of quadruplex structure ([2]; without the addition of potassium ions, FIG. 2A): could stabilize quadruplex structure without the addition of potassium ions
interaction with single-stranded DNA (ss DNA QB-1): interacted with ssDNA
interaction with double-stranded DNA [5]: did not interact appreciably with ds DNA
interaction with ds DNA (ds DNA pGL3): did not interact with ds DNA

QB-25: 5′-CCTTCCCCACCCTCCCCACCCTCCCCA-3′, SEQ ID NO 35, c-MYC (DNA, backbone and methylation of C not given here)
interaction with NMM (quadruplex forming profile) [3]: did not appreciably interact with NMM

QB-1: 5′-AGGGTGGGGAGGGTGGGGAA-3′, SEQ ID NO 17, c-MYC (DNA, backbone not given here)
capability of forming a quadruplex structure [3]: capable of forming a quadruplex structure

QB-9: 5′-GGGGTTTTGGGG-3′, SEQ ID NO 19, dimers for quadruplex of basket or crossover structure (DNA, backbone not given here)
capability of forming a quadruplex structure [3]: capable of forming a quadruplex structure
